We go through one molecule from US5364615A (priority 1992, dated 1994).

The conditions of the data set: human, in vivo.

For `N=C(N)c1ccc(OCCCCCOc2ccc(C(=N)N)cc2)cc1` [pentamidine, p,p'-(pentamethylenedioxy)dibenzamidine], the “frequent adverse effect observed clinically” value is “transient airway irritation”.
